# Laboratory results as given in patent US8722052B2, “Vaccinia virus protein A46 peptide and use thereof” (priority 2008, dated 2014).
# Test system: JNK
# Assay: LPS-induced phospho-JNK in RAW264.7 cells, immunoblot
# Format: cell-based, murine
# Settings: peptide 5 μM, 10 ng/ml LPS 5-60 min
# Description: FIGS. 27A, B and C are immunoblots showing the effect of A464 on LPS-induced appearance of phospho-JNK in murine RAW264.7 cells. Cells were set up as for FIG. 25 above and 5 μM A467 (SEQ ID NO. 23) or A464 (SEQ ID NO. 20) were added to the wells 1 hour before stimulation. Cells were stimulated with 10 ng/ml LPS for a period of 5, 15, 30 or 60 min, then harvested and lysed. Proteins were resolved by SDS-PAGE, and transferred membranes immunoblotted for phospho-JNK (A), total JNK (B) or β-actin (C). The blots shown are representative of two experiments;
# RAW264.7 cells were seeded at a density of 1×10^5 cells/ml in 6 well plates. […] The protein concentration was determined by monitoring the change in the solution absorbance at 280 nm using a spectrophotometer compared to protein standards. […] Thereafter, the membranes were washed, incubated in appropriate secondary antibody and then developed using standard enhanced chemi-luminescence (ECL) reagents.
# Next, the effect of A464 (SEQ ID No. 20) on MAPK activation was measured by assaying the phosphorylation of p38 and JNK by Western blot. […] As before the protein concentration in the samples was determined by Bradford assay and the accuracy of the loading was confirmed by re-probing the blot for β-actin. […]
sequence,measurement,value
KYSFKLILAEYRRRRRRRRR [Peptide A464],effect on LPS-induced phosphorylation of JNK,completely inhibited phosphorylation of JNK at all times of the LPS stimulation
